Test results reported in ChEMBL document CHEMBL3880428, “Sulfonamide derivative having PGD2 receptor antagonistic activity” (2012).

Assays:
Format in all cases: cell-based
[1] = test system: HEK293; experiment: Selectivity ratio of IC50 for PGD2 receptor in human platelets to IC50 for human EP1 receptor expressed in HEK293 cells by cAMP accumulation assay
[2] = test system: HEK293; experiment: Selectivity ratio of IC50 for PGD2 receptor in human platelets to IC50 for human EP2 receptor expressed in HEK293 cells by cAMP accumulation assay
[3] = test system: HEK293; experiment: Selectivity ratio of IC50 for PGD2 receptor in human platelets to IC50 for human EP3 receptor expressed in HEK293 cells by cAMP accumulation assay
[4] = test system: HEK293; experiment: Selectivity ratio of IC50 for PGD2 receptor in human platelets to IC50 for human EP4 receptor expressed in HEK293 cells by cAMP accumulation assay
[5] = test system: HEK293; experiment: Selectivity ratio of IC50 for PGD2 receptor in human platelets to IC50 for human FP receptor expressed in HEK293 cells by cAMP accumulation assay
[6] = test system: HEK293; experiment: Selectivity ratio of IC50 for PGD2 receptor in human platelets to IC50 for human TP receptor expressed in HEK293 cells by cAMP accumulation assay
[7] = test system: HEK293; experiment: Selectivity ratio of IC50 for PGD2 receptor in human platelets to IC50 for human IP receptor expressed in HEK293 cells by cAMP accumulation assay

Measured: Ratio IC50

CC(C)Oc1ccc(S(=O)(=O)N2CCN(c3ccc(C(=O)Nc4nncs4)c(OCC(=O)O)c3)CC2)cc1
> 20: all assays above

CC(C)Oc1ccc(S(=O)(=O)N2CCN(c3cc(OCC(=O)O)cc(-c4ccccc4)c3)CC2)cc1
> 20: all assays above

CC(C)Oc1ccc(S(=O)(=O)N2CCN(c3cc(Br)cc(OCC(=O)O)c3)CC2)cc1
> 20: all assays above

CC(C)Oc1ccc(S(=O)(=O)N2CCN(c3ccc(Br)c(OCC(=O)O)c3)CC2)cc1
> 20: all assays above

CC(C)Oc1ccc(S(=O)(=O)N2CCN(c3ccc([N+](=O)[O-])c(OCC(=O)O)c3)CC2)cc1
> 20: all assays above

Cc1cnc(-c2ccc(N3CCN(S(=O)(=O)c4ccc(OC(C)C)cc4)CC3)cc2OCC(=O)O)o1
> 20: all assays above

CC(C)Oc1ccc(S(=O)(=O)N2CCN(c3ccc(C(=O)NC4CC4)c(OCC(=O)O)c3)CC2)cc1
> 20: all assays above

CC(C)Oc1ccc(S(=O)(=O)N2CCN(c3cc(F)c(F)c(OCC(=O)O)c3)CC2)cc1
> 20: all assays above

CC(C)Oc1ccc(S(=O)(=O)N2CCN(c3cc(OCC(=O)O)ccc3Cl)CC2)cc1
> 20: all assays above

CC(C)Oc1ccc(S(=O)(=O)N2CCC(Oc3ccccc3/C=C/C(=O)O)CC2)cc1
> 20: all assays above

CC(C)Oc1ccc(S(=O)(=O)N2CC=C(c3ccc(Cl)c(OCC(=O)O)c3)CC2)cc1
> 20: all assays above

CC(C)Oc1ccc(S(=O)(=O)N2CCN(c3ccc(C#N)c(OCC(=O)O)c3)CC2)cc1
> 20: all assays above

CC(C)Oc1ccc(S(=O)(=O)N2CCN(c3ccc(NC(=O)c4ccccn4)c(OCC(=O)O)c3)CC2)cc1
> 20: all assays above

CC(C)Oc1ccc(S(=O)(=O)N2CCN(c3cccc(OCC(=O)O)n3)CC2)cc1
> 20: all assays above

CC(C)Oc1ccc(S(=O)(=O)N2CCN(c3ccc(OCc4ccccc4)c(OCC(=O)O)c3)CC2)cc1
> 20: all assays above

CC(C)Oc1ccc(S(=O)(=O)N2CCN(c3ccc(Cl)c(OCC(=O)O)c3)CC2)cc1F
> 20: all assays above

CC(C)Oc1ccc(S(=O)(=O)N2CCN(c3ccc(C(=O)NCc4cccs4)c(OCC(=O)O)c3)CC2)cc1
> 20: all assays above

CC(C)Sc1ccc(S(=O)(=O)N2CCN(c3ccc(Cl)c(OCC(=O)O)c3)CC2)cc1
> 20: all assays above

CC(C)Oc1ccc(S(=O)(=O)N2CCN(c3cc(OCC(=O)O)cc(-c4cccs4)c3)CC2)cc1
> 20: all assays above
